This note sets out measurements from patent US9428500B2, “Alpha-carbolines for the treatment of cancer” (UNIVERSITA' DEGLI STUDI DI MILANO—BICOCCA, priority 2012, dated 2016).

The first test has as its system parental untransformed BaF3 cells. The test can be described thus: Tritiated thymidine uptake cell proliferation assay, parental BaF3. The format is cell-based. Particulars: 3H-thymidine uptake, 72 h, medium with IL-3.
What is called IC50 is the concentration at which inhibition is half-maximal. For the compound “62:38 mixture of (E)-6-(4-(4-methylpiperazin-1-yl)phenyl)-4-(1-phenylbut-1-en-2-yl)-9H-pyrido[2,3-b]indole and (E)-6-(4-(4-methylpiperazin-1-yl)phenyl)-4-(1-phenylbut-1-en-1-yl)-9H-pyrido[2,3-b]indole [Example 31]”, the IC50 was 0.93 µM.

Staying with this test, now noted: Mus musculus, BaF3; 3H-thymidine uptake, 72 h, medium with IL-3.
As to `CN1CCN(c2ccc(-c3ccc4[nH]c5nccc(Cl)c5c4c3)cc2)CC1` [Example 1, 4-Chloro-6-[4-(4-methylpiperazin-1-yl)-phenyl]-9H-pyrido[2,3-b]indole], the IC50 amounted to 1.4 µM.
The same measure, in the same setting: next, `CN1CCN(c2ccc(-c3ccc4[nH]c5nccc(/C=C/c6ccccc6)c5c4c3)cc2)CC1` [Example 2, (E)-6-[4-(4-Methylpiperazin-1-yl)-phenyl]-4-(2-phenylvinyl)-9H-pyrido[2,3-b]indole]: 0.8 µM; `C/C(=C\c1ccccc1C(F)(F)F)c1ccnc2[nH]c3ccc(-c4ccc(N5CCN(C)CC5)cc4)cc3c12` [Example 3, (E)-6-[4-(4-Methylpiperazin-1-yl)-phenyl]-4-[1-(2-(trifluoromethyl)phenyl)prop-1-en-2-yl]-9H-pyrido[2,3-b]indole]: 2.4 µM.
On the same count and under the same terms, next, `CN1CCN(c2ccc(-c3ccc4[nH]c5nccc(-c6ccc(-c7ccccc7)cc6)c5c4c3)cc2)CC1` [Example 5, 4-Biphenyl-4-yl-6-[4-(4-methylpiperazin-1-yl)-phenyl]-9H-pyrido[2,3-b]indole]: over 25 µM; `CN1CCN(c2ccc(-c3ccc4[nH]c5nccc(/C=C/c6cccc(F)c6)c5c4c3)cc2)CC1` [Example 6, (E)-4-[2-(3-Fluorophenyl)vinyl]-6-[4-(4-methylpiperazin-1-yl)-phenyl]-9H-pyrido[2,3-b]indole]: 9.5 µM.
The same measure, in the same setting: the value for `COc1ccc(/C=C/c2ccnc3[nH]c4ccc(-c5ccc(N6CCN(C)CC6)cc5)cc4c23)cc1` [Example 7, (E)-4-[2-(4-Methoxyphenyl)vinyl]-6-[4-(4-methylpiperazin-1-yl)-phenyl]-9H-pyrido[2,3-b]indole] was 4.1 µM; that for `CN1CCN(c2ccc(-c3ccc4[nH]c5nccc(-c6ccc(OCc7ccccc7)cc6)c5c4c3)cc2)CC1` [Example 8, 4-(4-Benzyloxyphenyl)-6-[4-(4-methylpiperazin-1-yl)-phenyl]-9H-pyrido[2,3-b]indole] was 5 µM.
On to `CN1CCN(c2ccc(-c3ccc4[nH]c5nccc(-c6ccc(COc7cccc(C(F)(F)F)c7)cc6)c5c4c3)cc2)CC1` [Example 9, 6-[4-(4-Methylpiperazin-1-yl)-phenyl]-4-[4-(3-trifluoromethyl-phenoxymethyl)-phenyl]-9H-pyrido[2,3-b]indole], for which the 50% inhibitory concentration (IC50) is 25 µM.
Take `COc1ccccc1/C=C/c1ccnc2[nH]c3ccc(-c4ccc(N5CCN(C)CC5)cc4)cc3c12` [Example 10, (E)-4-(2-(2-Methoxyphenyl)vinyl)-6-(4-(4-methylpiperazin-1-yl)phenyl)-9H-pyrido[2,3-b]indole]: the IC50 is 2.1 µM.
On the same count and under the same terms, the value for `CN1CCN(c2ccc(-c3ccc4[nH]c5nccc(/C=C/c6ccccc6C(F)(F)F)c5c4c3)cc2)CC1` [Example 11, (E)-6-(4-(4-Methylpiperazin-1-yl)phenyl)-4-(2-(2-(trifluoromethyl)phenyl)vinyl)-9H-pyrido[2,3-b]indole] was 1.7 µM; that for `Cc1cc(OCc2ccc(-c3ccnc4[nH]c5ccc(-c6ccc(N7CCN(C)CC7)cc6)cc5c34)cc2)ccc1Cl` [Example 12, 4-[4-(4-Chloro-3-methyl-phenoxymethyl)-phenyl]-6-[4-(4-methylpiperazin-1-yl)-phenyl]-9H-pyrido[2,3-b]indole] was over 50 µM.
The same measure, in the same setting: the value for `CN1CCN(c2ccc(-c3ccc4[nH]c5nccc(/C=C/c6ccc(F)cc6)c5c4c3)cc2)CC1` [Example 13, (E)-4-(2-(4-Fluorophenyl)vinyl)-6-(4-(4-methylpiperazin-1-yl)phenyl)-9H-pyrido[2,3-b]indole] was 7.6 µM.
